Test results as given in patent publication US11413240B2 (Board of Regents, The University of Texas System, priority 2016, dated 2022).

Assays:
[1] = test system: patients with oral mucositis pain/lesions; assay: Additional patients assessed after methylene blue oral rinse at 0.025%, 0.05% and 0.1% (Table 2)
[2] = in vivo; cited from earlier work
[3] = 10 g/L, 25° C. (77° F.); cited from earlier work

In the case of `CN(C)c1ccc2nc3ccc(=[N+](C)C)cc-3sc2c1` [methylene blue], the analgesia ([1]; 0.05-0.1% methylene blue as a mouth rinse, almost all patients) is reported as “sustained analgesia over a few days to several months”, the “onset (of MB effect)” value ([1]; MB 0.025% oral rinse) is reported as 2 D and the “onset (of MB effect)” value ([1]; MB 0.05% oral rinse) is reported as 1 W. For the same molecule, the tolerability ([1]; mouth rinse, case series) was “tolerated well”, the blood-brain barrier passage [2] was “crosses the blood-brain barrier” and the pH in water [3] was 3.
